The values that follow come from ChEMBL document CHEMBL2034842, “Synthesis, anti-Candida activity, and cytotoxicity of new (4-(4-iodophenyl)thiazol-2-yl)hydrazine derivatives” (Eur J Med Chem, 2012).

Each structure is given as a SMILES string. Converted amounts (≈) assume the structure as drawn. Where only a bound is given, the exact number is not on record here.

What all share (type): functional
The subject of one experiment is Pichia kudriavzevii. The experiment is described as follows: Antifungal activity against 3 strains of Candida krusei after 24 hrs by […].
A further experiment concerns Candida tropicalis. The experiment can be described thus: Antifungal activity against 4 strains of Candida tropicalis after 24 hrs by […].
The next experiment deals with Proteus vulgaris. The experiment is described as follows: Antibacterial activity against Proteus vulgaris after 18 to 22 hrs by […].
The next experiment relates to Candida albicans. The experiment is described as follows: Antifungal activity against 10 strains of Candida albicans after 24 hrs by […].
Another experiment deals with Klebsiella aerogenes. The experiment can be described thus: Antibacterial activity against Enterobacter aerogenes after 18 to 22 hrs by […].
The subject of a further experiment is Enterococcus faecalis. The experiment is described as follows: Antibacterial activity against Enterococcus faecalis after 18 to 22 hrs by […].
In a further experiment the test system is Staphylococcus aureus. The experiment is described as follows: Antibacterial activity against Staphylococcus aureus after 18 to 22 hrs by […].
The subject of another experiment is Staphylococcus warneri. The experiment is described as follows: Antibacterial activity against Staphylococcus warneri after 18 to 22 hrs by […].
A further experiment has as its system Streptococcus pyogenes. The experiment can be described thus: Antibacterial activity against Streptococcus pyogenes after 18 to 22 hrs by […].
The next experiment deals with Candida parapsilosis. The experiment is described as follows: Antifungal activity against 4 strains of Candida parapsilosis after 24 hrs by […]. The following applies: Lodderomyces parapsilosis.
Another experiment has as its system [Candida] sake. The experiment is described as follows: Antifungal activity against 2 strains of Candida sake after 24 hrs by […]. The following applies: Fermentozyma sake.
The subject of a further experiment is Escherichia coli. The experiment is described as follows: Antibacterial activity against Escherichia coli after 18 to 22 hrs by […].
The test system of a further experiment is Nakaseomyces glabratus. The experiment can be described thus: Antifungal activity against 4 strains of Candida glabrata after 24 hrs by […].
The subject of a further experiment is Klebsiella pneumoniae. The experiment is described as follows: Antibacterial activity against Klebsiella pneumoniae after 18 to 22 hrs by […].

As for `Ic1ccc(-c2csc(NN=C3CCCC3)n2)cc1`, the MIC is 2 µg/mL (≈ 5.22 µM) with Pichia kudriavzevii; 0.5 µg/mL (≈ 1.3 µM) against Candida tropicalis; 32 µg/mL (≈ 83.5 µM) against Proteus vulgaris; 2 µg/mL (≈ 5.22 µM) with Candida albicans; above 128 µg/mL in the experiment with Klebsiella aerogenes; 8 µg/mL (≈ 20.9 µM) against Enterococcus faecalis. Further, the MIC in the experiment on Staphylococcus aureus is 32 µg/mL (≈ 83.5 µM); against Staphylococcus warneri it was 8 µg/mL (≈ 20.9 µM); in the experiment on Streptococcus pyogenes it was 8 µg/mL (≈ 20.9 µM); in the experiment with Candida parapsilosis, 2 µg/mL (≈ 5.22 µM); in experiment [Candida] sake, 32 µg/mL (≈ 83.5 µM); against Escherichia coli, above 128 µg/mL. Moreover, the figures for the MIC with Nakaseomyces glabratus and in the experiment on Klebsiella pneumoniae were 2 µg/mL (≈ 5.22 µM) and above 128 µg/mL, respectively.

On to `Ic1ccc(-c2csc(NN=C3CCCCC3)n2)cc1`, for which the MIC against Pichia kudriavzevii is 2 µg/mL (≈ 5.03 µM); in the experiment on Candida tropicalis it was 2 µg/mL (≈ 5.03 µM); in the experiment with Proteus vulgaris, above 128 µg/mL; in the experiment on Candida albicans, 0.5 µg/mL (≈ 1.26 µM); against Klebsiella aerogenes, above 128 µg/mL; in the experiment on Enterococcus faecalis, 32 µg/mL (≈ 80.5 µM). Moreover, the MIC was 32 µg/mL (≈ 80.5 µM) against Staphylococcus aureus; 32 µg/mL (≈ 80.5 µM) with Staphylococcus warneri; 8 µg/mL (≈ 20.1 µM) in the experiment on Streptococcus pyogenes; 2 µg/mL (≈ 5.03 µM) in the experiment on Candida parapsilosis; 16 µg/mL (≈ 40.3 µM) in experiment [Candida] sake; above 128 µg/mL in the experiment with Escherichia coli. For the same compound, the MIC in the experiment on Nakaseomyces glabratus is 2 µg/mL (≈ 5.03 µM); with Klebsiella pneumoniae, above 128 µg/mL.

Consider `CC1CCCC/C1=N\Nc1nc(-c2ccc(I)cc2)cs1` (stereo not given), for which the MIC in the experiment with Pichia kudriavzevii was 128 µg/mL (≈ 311 µM); against Candida tropicalis it was 0.5 µg/mL (≈ 1.22 µM); against Proteus vulgaris, above 128 µg/mL; in the experiment on Candida albicans, 0.25 µg/mL (≈ 0.608 µM); in the experiment on Klebsiella aerogenes, above 128 µg/mL; in the experiment on Enterococcus faecalis it was 8 µg/mL (≈ 19.4 µM). In addition, the MIC against Staphylococcus aureus was determined as 8 µg/mL (≈ 19.4 µM); against Staphylococcus warneri it was 4 µg/mL (≈ 9.72 µM); in the experiment with Streptococcus pyogenes, 8 µg/mL (≈ 19.4 µM); against Candida parapsilosis, 2 µg/mL (≈ 4.86 µM); in experiment [Candida] sake it was 128 µg/mL (≈ 311 µM); against Escherichia coli it was 16 µg/mL (≈ 38.9 µM). For the same compound, the minimal inhibitory concentration (MIC) in the experiment with Nakaseomyces glabratus is 2 µg/mL (≈ 4.86 µM); against Klebsiella pneumoniae, 32 µg/mL (≈ 77.8 µM).

Take `CC1CCC/C(=N\Nc2nc(-c3ccc(I)cc3)cs2)C1` (stereo not given): the MIC against Pichia kudriavzevii was 128 µg/mL (≈ 311 µM); with Candida tropicalis, 2 µg/mL (≈ 4.86 µM); in the experiment with Proteus vulgaris, above 128 µg/mL; against Candida albicans, 2 µg/mL (≈ 4.86 µM); in the experiment with Klebsiella aerogenes, above 128 µg/mL; with Enterococcus faecalis, 8 µg/mL (≈ 19.4 µM). Further, the MIC against Staphylococcus aureus is 32 µg/mL (≈ 77.8 µM); in the experiment on Staphylococcus warneri, 4 µg/mL (≈ 9.72 µM); against Streptococcus pyogenes, 4 µg/mL (≈ 9.72 µM); in the experiment with Candida parapsilosis, 2 µg/mL (≈ 4.86 µM); in experiment [Candida] sake it was 128 µg/mL (≈ 311 µM); in the experiment on Escherichia coli, above 128 µg/mL. Moreover, the MIC in the experiment on Nakaseomyces glabratus was 4 µg/mL (≈ 9.72 µM); against Klebsiella pneumoniae, above 128 µg/mL.

As for `CC1CCC(=NNc2nc(-c3ccc(I)cc3)cs2)CC1` (stereo not given), the MIC is 64 µg/mL (≈ 156 µM) with Pichia kudriavzevii; 2 µg/mL (≈ 4.86 µM) in the experiment on Candida tropicalis; above 128 µg/mL in the experiment on Proteus vulgaris; 0.5 µg/mL (≈ 1.22 µM) with Candida albicans; above 128 µg/mL with Klebsiella aerogenes; 4 µg/mL (≈ 9.72 µM) against Enterococcus faecalis. Moreover, the MIC was 32 µg/mL (≈ 77.8 µM) against Staphylococcus aureus; 32 µg/mL (≈ 77.8 µM) against Staphylococcus warneri; 2 µg/mL (≈ 4.86 µM) in the experiment on Streptococcus pyogenes; 2 µg/mL (≈ 4.86 µM) against Candida parapsilosis; 64 µg/mL (≈ 156 µM) in experiment [Candida] sake; above 128 µg/mL in the experiment on Escherichia coli. The MIC was 2 µg/mL (≈ 4.86 µM) against Nakaseomyces glabratus and above 128 µg/mL against Klebsiella pneumoniae.

Turning to `CC(C)(O/N=C(\C(=O)N[C@@H]1C(=O)N2C(C(=O)[O-])=C(C[n+]3ccccc3)CS[C@H]12)c1csc(N)n1)C(=O)O` [CEFTAZIDIME], the MIC is 2 µg/mL (≈ 3.66 µM) in the experiment with Proteus vulgaris; 2 µg/mL (≈ 3.66 µM) in the experiment with Klebsiella aerogenes; 0.5 µg/mL (≈ 0.915 µM) against Enterococcus faecalis; 0.5 µg/mL (≈ 0.915 µM) against Staphylococcus aureus; 0.5 µg/mL (≈ 0.915 µM) against Staphylococcus warneri; 0.5 µg/mL (≈ 0.915 µM) in the experiment on Streptococcus pyogenes. The results for the minimal inhibitory concentration (MIC) against Escherichia coli and in the experiment with Klebsiella pneumoniae were 4 µg/mL (≈ 7.32 µM) and 2 µg/mL (≈ 3.66 µM), respectively.

For the compound `OC(Cn1cncn1)(Cn1cncn1)c1ccc(F)cc1F` [FLUCONAZOLE], the minimum inhibitory concentration (MIC) (in the experiment on Pichia kudriavzevii; against Candida tropicalis; against Candida albicans; against Candida parapsilosis; in [Candida] sake; with Nakaseomyces glabratus) was 4 µg/mL (≈ 13.1 µM) each time.

As to `COC1=CC(=O)C[C@@H](C)[C@]12Oc1c(Cl)c(OC)cc(OC)c1C2=O` [GRISEOFULVIN], the MIC (against Pichia kudriavzevii; with Candida tropicalis; with Candida albicans; with Candida parapsilosis; in [Candida] sake; in the experiment with Nakaseomyces glabratus) was 8 µg/mL (≈ 22.7 µM) in each case.

Usually MIC stands for the lowest concentration found to suppress growth. High values mean weaker potency, low ones greater potency.
